Measurements: US8404670B2 (Sunovion Pharmaceuticals Inc., priority 2009, dated 2013)

Molecular target: T1, human histamine H3 receptor (Homo sapiens, UniProt Q9Y5N1)
T1 construct: host or cells: cells expressing the human H3 receptor
Assay: H3 GTPγS assay (SPA method), histamine H3 in vitro assay
Assay type: biochemical
Conditions: GTPγ[35S] binding to membranes of cells expressing human H3; antagonist mode with R-γ-Me-Histamine at EC80 (30 nM); in one embodiment HCl salts tested; read-out: Potency (functional potency as indicated by IC50)

T1 sequence (Q9Y5N1 whole entry): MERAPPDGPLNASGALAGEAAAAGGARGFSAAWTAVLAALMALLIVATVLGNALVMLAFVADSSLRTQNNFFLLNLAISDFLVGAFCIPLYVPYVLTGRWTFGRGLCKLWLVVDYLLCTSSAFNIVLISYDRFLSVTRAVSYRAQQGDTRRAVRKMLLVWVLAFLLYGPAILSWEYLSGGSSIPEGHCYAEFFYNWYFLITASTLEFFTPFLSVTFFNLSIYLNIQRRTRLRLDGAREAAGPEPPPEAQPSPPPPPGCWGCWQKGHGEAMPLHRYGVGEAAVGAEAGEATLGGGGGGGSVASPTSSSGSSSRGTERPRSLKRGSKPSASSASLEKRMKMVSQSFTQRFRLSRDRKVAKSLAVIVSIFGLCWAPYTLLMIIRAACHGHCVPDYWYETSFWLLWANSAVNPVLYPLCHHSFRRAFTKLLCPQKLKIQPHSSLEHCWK

| IC50 | SMILES |
| --- | --- |
| ≤ 10 nM | c1ccc(CN2CCN(c3ccc4c(c3)nc3n4CCN(C4CCC4)CC3)CC2)cc1 [Compound 224, 8-(4-benzylpiperazin-1-yl)-3-cyclobutyl-2,3,4,5-tetrahydro-1H-benzo[4,5]imidazo[1,2-d][1,4]diazepine] |
| ≤ 10 nM | c1cc2c(cc1N1CCC(N3CCOCC3)CC1)nc1n2CCN(C2CCC2)CC1 [Compound 225, 4-(1-(3-cyclobutyl-2,3,4,5-tetrahydro-1H-benzo[4,5]imidazo[1,2-d][1,4]diazepin-8-yl)piperidin-4-yl)morpholine] |
| ≤ 100 nM | c1cc2c(cc1N1CCCC1)nc1n2CCN(C2CCC2)CC1 [Compound 226, 3-cyclobutyl-8-(pyrrolidin-1-yl)-2,3,4,5-tetrahydro-1H-benzo[4,5]imidazo[1,2-d][1,4]diazepine] |
| ≤ 100 nM | c1ccc(C2CCN(c3ccc4c(c3)nc3n4CCN(C4CCC4)CC3)CC2)cc1 [Compound 227, 3-cyclobutyl-8-(4-phenylpiperidin-1-yl)-2,3,4,5-tetrahydro-1H-benzo[4,5]imidazo[1,2-d][1,4]diazepine] |
| ≤ 10 nM | N#Cc1ccc(N2CCN(c3ccc4c(c3)nc3n4CCN(C4CCC4)CC3)CC2)cc1 [Compound 228, 4-(4-(3-cyclobutyl-2,3,4,5-tetrahydro-1H-benzo[4,5]imidazo[1,2-d][1,4]diazepin-8-yl)piperazin-1-yl)benzonitrile] |
| ≤ 10 nM | c1ccc(N2CCN(c3ccc4c(c3)nc3n4CCN(C4CCC4)CC3)CC2)cc1 [Compound 229, 3-cyclobutyl-8-(4-phenylpiperazin-1-yl)-2,3,4,5-tetrahydro-1H-benzo[4,5]imidazo[1,2-d][1,4]diazepine] |
| ≤ 10 nM | c1ccc(N2CCN(c3ccc4c(c3)nc3n4CCN(C4CCC4)CC3)CC2)nc1 [Compound 230, 3-cyclobutyl-8-(4-(pyridin-2-yl)piperazin-1-yl)-2,3,4,5-tetrahydro-1H-benzo[4,5]imidazo[1,2-d][1,4]diazepine] |
| ≤ 10 nM | Fc1ccc(N2CCN(c3ccc4c(c3)nc3n4CCN(C4CCC4)CC3)CC2)cc1 [Compound 231, 3-cyclobutyl-8-(4-(4-fluorophenyl)piperazin-1-yl)-2,3,4,5-tetrahydro-1H-benzo[4,5]imidazo[1,2-d][1,4]diazepine] |
| ≤ 10 nM | c1csc(N2CCN(c3ccc4c(c3)nc3n4CCN(C4CCC4)CC3)CC2)n1 [Compound 232, 2-(4-(3-cyclobutyl-2,3,4,5-tetrahydro-1H-benzo[4,5]imidazo[1,2-d][1,4]diazepin-8-yl)piperazin-1-yl)thiazole] |
| ≤ 10 nM | c1cnc(N2CCN(c3ccc4c(c3)nc3n4CCN(C4CCC4)CC3)CC2)cn1 [Compound 233, 3-cyclobutyl-8-(4-(pyrazin-2-yl)piperazin-1-yl)-2,3,4,5-tetrahydro-1H-benzo[4,5]imidazo[1,2-d][1,4]diazepine] |
| ≤ 100 nM | c1ccc(N2CCN(c3ccc4nc5n(c4c3)CCN(C3CCC3)CC5)CC2)nc1 [Compound 234, 3-cyclobutyl-9-(4-(pyridin-2-yl)piperazin-1-yl)-2,3,4,5-tetrahydro-1H-benzo[4,5]imidazo[1,2-d][1,4]diazepine] |
| ≥ 1000 nM | Brc1cnc2c(c1)nc1n2CCN(C2CCC2)CC1 [Compound 235, 7-Aza-3-cyclobutyl-9-bromo-2,3,4,5-tetrahydro-1H-[1,4]diazepino[1,7-a]benzimidazole] |
| ≤ 1000 nM | c1cnc(-c2cnc3c(c2)nc2n3CCN(C3CCC3)CC2)cn1 [Compound 236, 7-Aza-3-cyclobutyl-9-(pyrazin-2-yl)-2,3,4,5-tetrahydro-1H-[1,4]diazepino[1,7-a]benzimidazole] |
| ≤ 100 nM | N#Cc1ccc(-c2cnc3c(c2)nc2n3CCN(C3CCC3)CC2)cc1 [Compound 237, 4-(7-aza-3-cyclobutyl-2,3,4,5-tetrahydro-1H-[1,4]diazepino[1,7-a]benzimidazol-9-yl)benzonitrile] |
| ≤ 1000 nM | c1coc(-c2cnc3c(c2)nc2n3CCN(C3CCC3)CC2)c1 [Compound 238] |
| ≤ 100 nM | NCc1ccc(-c2cnc3c(c2)nc2n3CCN(C3CCC3)CC2)cc1 [Compound 239] |
